Test results reported in patent publication US11725000B2, “Apoptosis inhibitors” (National Institute of Biological Sciences, Beijing, priority 2017, dated 2023).
Where two headings read alike, the source gives them in different places.

Test system: U2OS_Bim cells
Assay: Apoptosis inhibition assay (Bim-induced apoptosis, cell viability by ATP level)
Type: cell-based
Conditions: U2OS_Bim cells, numbering of Tables 4a/4b, read-out: EC50
How it was run: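 Apoptosis was triggered by doxycycline (0.1 μg/mL) induction of Bim, one hour after compound addition to U2OS_Bim cells. Survival was measured after 24 h from cellular ATP (CellTiter-Glo), relative to DMSO, with zVAD at 20 μM as rescue control. Data are duplicate means, some estimated from preliminary results.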

[1] = estimated (*Est.) / preliminary results
[2] = estimated based on preliminary results

Structure (SMILES) | EC50 (means of duplicates) [nM] | EC50 [2] [nM] | further results
COc1ccc(Cn2cc(-c3cc(C(F)(F)F)nc(S(=O)(=O)CCC(=O)N4CCCC4)n3)ccc2=O)cc1OC [Compound 150, 1-(3,4-dimethoxybenzyl)-5-(2-((3-oxo-3-(pyrrolidin-1-yl)propyl)sulfonyl)-6-(trifluoromethyl)pyrimidin-4-yl)pyridin-2 (1H)-one] | 1 to 1000 | – | –
Cc1cc(-c2cc(F)c(=O)n(Cc3ccnc(CCO)c3)c2)nc(S(=O)(=O)CCC(OCc2ccccc2F)c2ccccc2)n1 (centres unmarked) [Compound 360] | – | – | EC50 [1]: 1 to 1000 nM
CCc1ccc(Cn2cc(-c3cc(C(F)(F)F)nc(S(C)(=O)=O)n3)ccc2=O)cc1CC [Compound 266] | – | < 10000 | –
Cc1cc(-c2cc(F)c(=O)n(Cc3ccc4c(c3)OCO4)c2)nc(S(=O)(=O)CCCn2c(=O)oc3ccccc32)n1 [Compound 366] | – | – | EC50 [1]: 1 to 1000 nM
COc1ccc(Cn2cc(-c3cc(-c4cccs4)nc(S(=O)(=O)CCC(OCc4ccccc4)c4ccccc4)n3)ccc2=O)cc1OC (centres unmarked) [Compound 300, 5-(2-((3-(benzyloxy)-3-phenylpropyl)sulfonyl)-6-(thiophen-2-yl)pyrimidin-4-yl)-1-(3,4-dimethoxybenzyl)pyridin-2 (1H)-one] | 1 to 1000 | – | –
C[S+]([O-])c1nc(-c2ccc(=O)n(Cc3ccc4ocnc4c3)c2)cc(C(F)(F)F)n1 (centres unmarked) [Compound 225] | – | < 10000 | –
CS(=O)(=O)c1nc(-c2ccc(=O)n(Cc3ccc4ccccc4c3)c2)cc(C(F)(F)F)n1 [Compound 134, 5-(2-(methylsulfonyl)-6-(trifluoromethyl)pyrimidin-4-yl)-1-(naphthalen-2-ylmethyl)pyridin-2 (1H)-one] | 1000 to 10000 | – | –
CS(=O)(=O)c1nc(-c2ccc(=O)n(Cc3ccc4c(c3)NCCO4)c2)cc(C(F)(F)F)n1 [Compound 242] | – | < 10000 | –
C#CCOc1cccc(Cn2cc(-c3cc(C(F)(F)F)nc(S(C)(=O)=O)n3)ccc2=O)c1 [Compound 115, 5-(2-(methylsulfonyl)-6-(trifluoromethyl)pyrimidin-4-yl)-1-(3-(prop-2-yn-1-yloxy)benzyl) pyridin-2 (1H)-one] | 1 to 1000 | – | –
COc1ccc(Cn2cc(-c3cc(C(F)(F)F)nc([S+]([O-])CN4CCCC4)n3)ccc2=O)cc1OC (centres unmarked) [Compound 198] | – | < 10000 | –
Cc1cc(-c2cc(F)c(=O)n(Cc3ccc4c(c3)OCO4)c2)nc(S(=O)(=O)CCC(OCc2ccccc2F)c2ccc3ncsc3c2)n1 (centres unmarked) [Compound 396] | – | – | EC50 [1]: 1 to 1000 nM
COc1ccc(Cn2cc(-c3cc(-c4cncs4)nc(S(C)(=O)=O)n3)ccc2=O)cc1OC [Compound 215] | – | < 10000 | –
CS(=O)(=O)c1nc(-c2ccc(=O)[nH]c2)cc(C(F)(F)F)n1 [Compound 99, 5-(2-(methylsulfonyl)-6-(trifluoromethyl)pyrimidin-4-yl)pyridin-2 (1H)-one] | < 100000 | – | –
COc1ccc(Cn2cc(-c3cc(C)nc(S(=O)(=O)CCC(C)OCc4ccccc4F)n3)cc(F)c2=O)cc1F (centres unmarked) [Compound 305, 3-fluoro-1-(3-fluoro-4-methoxybenzyl)-5-(2-((3-((2-fluorobenzyl)oxy)butyl)sulfonyl)-6-methylpyrimidin-4-yl)pyridin-2 (1H)-one] | 1 to 1000 | – | –
Cc1cc(-c2cc(F)c(=O)n(Cc3ccc4nnn(C)c4c3)c2)nc(S(=O)(=O)CCCC(=O)N(c2ccccc2)C2CC2)n1 [Compound 375] | – | – | EC50 [1]: 1 to 1000 nM
Cc1ccc(-c2cc(C(F)(F)F)nc(S(C)(=O)=O)n2)cc1 [Compound 48, 2-(methylsulfonyl)-4-(p-tolyl)-6-(trifluoromethyl)pyrimidine] | < 100000 | – | –
CS(=O)(=O)c1nc(-c2cccs2)cc(N2CCCC2=O)n1 [Compound 38, 1-(2-(methylsulfonyl)-6-(thiophen-2-yl)pyrimidin-4-yl)pyrrolidin-2-one] | < 100000 | – | –
CS(=O)(=O)c1nc(-c2ccc(=O)n(Cc3cccc(C#N)c3)c2)cc(C(F)(F)F)n1 [Compound 118, 3-((5-(2-(methylsulfonyl)-6-(trifluoromethyl)pyrimidin-4-yl)-2-oxopyridin-1 (2H)-yl)methyl)benzonitrile] | 1000 to 20000 | – | –
COc1ccc(Cn2cc(-c3cc(-c4cncs4)nc([S+](C)[O-])n3)ccc2=O)cc1OC (centres unmarked) [Compound 216] | – | < 10000 | –
CS(=O)(=O)c1nc(-c2ccc(=O)n(Cc3ccc4cccnc4c3)c2)cc(C(F)(F)F)n1 [Compound 252] | – | < 10000 | –
CS(=O)(=O)c1nc(-c2ccc(=O)n(Cc3ccc4c(c3)OCCO4)c2)cc(C(F)(F)F)n1 [Compound 230] | – | < 10000 | –
Cc1cc(-c2cc(F)c(=O)n(Cc3cccc4c3OCO4)c2)nc(S(=O)(=O)CCC(OCc2ccccc2F)c2ccccc2)n1 (centres unmarked) [Compound 320, 1-(benzo[d][1,3]dioxol-4-ylmethyl)-3-fluoro-5-(2-(3-(2-fluorobenzyloxy)-3-phenylpropylsulfonyl)-6-methylpyrimidin-4-yl)pyridin-2 (1H)-one] | 1 to 1000 | – | –

Structure (SMILES) | EC50 (means of duplicates) [nM] | EC50 [2] [nM] | further results
Cc1cc(-c2cc(F)c(=O)n(Cc3ccc4c(c3)OCO4)c2)nc(S(=O)(=O)CCCn2cnc3ccccc32)n1 [Compound 338, 5-(2-((3-(1H-benzo[d]imidazol-1-yl)propyl)sulfonyl)-6-methylpyrimidin-4-yl)-1-(benzo[d][1,3]dioxol-5-ylmethyl)-3-fluoropyridin-2 (1H)-one] | – | – | EC50 [1]: 1 to 1000 nM
C[S+]([O-])c1nc(-c2ccc(=O)n(Cc3ccc4cccnc4c3)c2)cc(C(F)(F)F)n1 (centres unmarked) [Compound 253] | – | < 10000 | –
CS(=O)(=O)c1nc(-c2ccc(F)cc2)cc(C(F)(F)F)n1 [Compound 45, 4-(4-fluorophenyl)-2-(methylsulfonyl)-6-(trifluoromethyl)pyrimidine] | 1000 to 10000 | – | –
CCC(F)(F)c1cc(-c2ccc(=O)n(Cc3ccc(OC)c(OC)c3)c2)nc(S(C)(=O)=O)n1 [Compound 270, 5-(6-(1,1-difluoropropyl)-2-(methylsulfonyl)pyrimidin-4-yl)-1-(3,4-dimethoxybenzyl)pyridin-2 (1H)-one] | – | < 10000 | –
COc1ccc(Cn2cc(-c3cc(C(F)(F)F)nc(S(=O)(=O)CCCC(=O)N4CCOCC4)n3)ccc2=O)cc1OC [Compound 156, 1-(3,4-dimethoxybenzyl)-5-(2-((4-morpholino-4-oxobutyl)sulfonyl)-6-(trifluoromethyl)pyrimidin-4-yl)pyridin-2 (1H)-one] | 1 to 1000 | – | –
CS(=O)(=O)c1nc(-c2ccc(=O)n(Cc3cccc(Br)c3)c2)cc(C(F)(F)F)n1 [Compound 107, 1-(3-bromobenzyl)-5-(2-(methylsulfonyl)-6-(trifluoromethyl)pyrimidin-4-yl)pyridin-2 (1H)-one] | 1 to 1000 | – | –
CS(=O)(=O)c1nc(-c2cccs2)cc(-n2cccn2)n1 [Compound 36, 2-(methylsulfonyl)-4-(1H-pyrazol-1-yl)-6-(thiophen-2-yl)pyrimidine] | 1000 to 10000 | – | –
COc1ccc(Cn2cc(-c3cc(C(F)(F)F)nc([S+]([O-])CN4CCCCC4)n3)ccc2=O)cc1OC (centres unmarked) [Compound 197] | – | < 10000 | –
COc1ccc(Cn2cc(-c3cc(C(F)F)nc(S(=O)(=O)CCCC(=O)NC45CC6CC(CC(C6)C4)C5)n3)ccc2=O)cc1OC [Compound 288, N-((3s,5s,7s)-adamantan-1-yl)-4-((4-(difluoromethyl)-6-(1-(3,4-dimethoxybenzyl)-6-oxo-1,6-dihydropyridin-3-yl)pyrimidin-2-yl)sulfonyl)butanamide] | 1 to 1000 | – | –
C#Cc1cccc(Cn2cc(-c3cc(C(F)(F)F)nc([S+](C)[O-])n3)ccc2=O)c1 (centres unmarked) [Compound 121, 1-(3-ethynylbenzyl)-5-(2-(methylsulfinyl)-6-(trifluoromethyl)pyrimidin-4-yl)pyridin-2 (1H)-one] | 1 to 1000 | – | –
C[S+]([O-])c1nc(-c2cc[nH]c2)cc(C(F)(F)F)n1 (centres unmarked) [Compound 88, 2-(methylsulfinyl)-4-(1H-pyrrol-3-yl)-6-(trifluoromethyl)pyrimidine] | < 100000 | – | –
Cc1cc(-c2cc(F)c(=O)n(Cc3ccc4nnn(C)c4c3)c2)nc(S(=O)(=O)CCCC(=O)N(c2ccccc2)C2CCC2)n1 [Compound 373] | – | – | EC50 [1]: 1 to 1000 nM
COc1ccc(Cn2cc(-c3cc(C4=CCC=C4)nc([S+](C)[O-])n3)ccc2=O)cc1OC (centres unmarked) [Compound 209] | – | < 10000 | –
COc1cccc(C[S+]([O-])c2nc(-c3ccc(=O)n(Cc4ccc(OC)c(OC)c4)c3)cc(C(F)F)n2)c1 (centres unmarked) [Compound 173, 5-(6-(difluoromethyl)-2-((3-methoxybenzyl)sulfinyl)pyrimidin-4-yl)-1-(3,4-dimethoxybenzyl)pyridin-2 (1H)-one] | 1000 to 10000 | – | –
CN(C)C(=O)c1cccc(-c2cc(C(F)(F)F)nc(S(C)(=O)=O)n2)c1 [Compound 69, N,N-dimethyl-3-(2-(methylsulfonyl)-6-(trifluoromethyl)pyrimidin-4-yl)benzamide] | 1000 to 10000 | – | –
COc1ccccc1-c1cc(C(F)(F)F)nc(S(C)(=O)=O)n1 [Compound 51, 4-(2-methoxyphenyl)-2-(methylsulfonyl)-6-(trifluoromethyl)pyrimidine] | 1000 to 10000 | – | –
COc1ccc(Cn2cc(-c3cc(-c4cnco4)nc(S(C)(=O)=O)n3)ccc2=O)cc1OC [Compound 212] | – | < 10000 | –
CS(=O)(=O)c1nc(-c2ccccc2F)cc(C(F)(F)F)n1 [Compound 43, 4-(2-fluorophenyl)-2-(methylsulfonyl)-6-(trifluoromethyl)pyrimidine] | 1000 to 20000 | – | –
CS(=O)(=O)c1nc(-c2ccc(=O)n(Cc3cccc4ccccc34)c2)cc(C(F)(F)F)n1 [Compound 133, 5-(2-(methylsulfonyl)-6-(trifluoromethyl)pyrimidin-4-yl)-1-(naphthalen-1-ylmethyl)pyridin-2 (1H)-one] | 1000 to 10000 | – | –
COc1ccc(Cn2cc(-c3cc(C(F)(F)F)nc(S(=O)(=O)CN4CCCCC4)n3)ccc2=O)cc1OC [Compound 196] | – | < 10000 | –
COc1ccc(Cn2cccc2-c2cc(C(F)(F)F)nc(S(C)(=O)=O)n2)cc1OC [Compound 85, 4-(1-(3,4-dimethoxybenzyl)-1H-pyrrol-2-yl)-2-(methylsulfonyl)-6-(trifluoromethyl)pyrimidine] | 1000 to 10000 | – | –
Cc1cc(-c2cc(F)c(=O)n(Cc3ccc4c(c3)OCO4)c2)nc(S(=O)(=O)CCC(OCC(C)(C)C)c2ccccc2)n1 (centres unmarked) [Compound 421] | – | – | EC50 [1]: 1 to 1000 nM
